The IC50 is the point on the concentration scale where inhibition reaches its midpoint. Lower therefore signals greater potency.

The source of these data is patent US20260042764A1, “COMPOSITIONS AND METHODS FOR INHIBITION OF KRAS” (TheRas, Inc., priority 2022, published 2026).

Read-outs that look alike come from different tables or passages of the source. A value given as a limit tells only on which side of the number the result lay.

Test [1] addresses T1, Avi-KRAS G12C (2-169) GTP/RAF1 RBD-3xFLAG (51-131) (Homo sapiens, UniProt P01116, G12C).
T1 construct: Avi-KRAS G12C (2-169)
Put plainly: Raf1-KRAS G12C-GTP disruption HTRF assay (Biological Example 3). In kind it is binding. Particulars: KRAS G12C, GTP-loaded. An outline of the steps:
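An HTRF assay measured disruption of 50 nM Avi-KRAS (2-169)-GTP (WT, G12C, G12D or G12V) bound to RAF1 RBD-3xFLAG (51-131). Buffer was Tris pH 7.5 with 5 mM MgCl2 and 10% DMSO. Compounds (30–0.005 μM, 3-fold, 10 points) were incubated 1 h at room temperature, and activity is given as % of DMSO.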
Background: TR-FRET usually uses a lanthanide donor and a delayed reading to cut background.

In test [2] the test system is AsPC-1 cells (KRAS G12D). Put plainly: Cell-based pERK HTRF assay in AsPC-1 cells (Biological Example 5). As to conditions: Homo sapiens, ASPC1, AsPC-1 (KRAS G12D) cells. How it is done: (§1) Biological Example 5: Cell-based PERK HTRF assay in AsPC-1, SW1900, HPAC, Capan-2, RKN, H358, HCT116, KP-2, H1573, A549, MKN1, and HT1080 cells
(§2) The inhibition of ERK phosphorylation, as measured using the HTRF Advanced Phospho-ERK 1/2 (Thr202/Tyr204) Detection Assay kit (Perkin Elmer), was used to determine the effectiveness of test compounds in disrupting KRAS-driven protein/effector signaling in cells.
(§3) On day 1, cells were seeded into 96-well plates at 2.5×10^4 cells/well in 100 μL of complete growth media supplemented with 10% fetal bovine serum (FBS) and incubated at 37° C., in the presence of 5% CO2.
(§4) On day 2, cells were treated with compounds diluted in DMSO at 0.25% final DMSO concentration. Compounds were dosed in a 9-point concentration curve with three-fold dilution between concentrations. Cells were incubated in the presence of compound for two hours at 37° C. Following this treatment period, cells were harvested by aspirating the media, adding 40 μL of kit-supplied 1x lysis buffer per well, and shaking for 30 minutes at 250 rpm at room temperature.
(§5) Following cell lysis, samples were homogenized by pipetting up and down twenty times and 16 μL of cell lysate per well was transferred from the 96-well cell culture plate to two wells of a 384-well detection plate. A complete detection buffer was prepared by diluting D2 and Eu Cryptate antibodies 1:20 in kit-provided detection solution, 4 μL of complete detection buffer was then added to each well with lysate. Plates were incubated with gentle rocking for 24 hours at 4° C.
(§6) Following this incubation period, plates were centrifuged at 500×g for one minute and analyzed on a CLARIOstar plate reader. Data was imported into Microsoft Excel and the signal from the 665 nm channel was divided by the signal from the 620 nm channel. % pERK was calculated as: […]
(§7) Data was imported to the Prism software package (Graphpad) and EC50 values were calculated using the log (inhibitor) vs, response—variable slopc (Four parameters) model.

Test [3] concerns RKN cells (KRAS G12V). Put plainly: Cell-based pERK HTRF assay in RKN cells (Biological Example 5). How it is done: as §1, §2, §3, §4, §5, §6, §7
For test [4], the system named is MKN1 cells (KRAS amplification). Put plainly: Cell-based pERK HTRF assay in MKN1 cells (Biological Example 5). As to the method:
as §1, §2, §3, §4, §5, §6, §7

For test [5], the system named is RKN cells (KRAS G12V). Put plainly: 3D Cell viability assay in RKN cells (Biological Example 6). Particulars: RKN (KRAS G12V) spheroids, 72 hours. In kind it is cell-based. How it is done:
(§8) Biological Example 6: 3D Cell viability assay in AsPC-1, SW1900, HPAC, Capan-2, RKN, H358, HCT116, KP-2, H1573, A549, MKN1, and HT1080 cells
(§9) The inhibition of cellular viability as a result of test compound treatment in a spheroid assay was measured using the CellTiter-Glow 3D Cell Viability Assay (Promega).
(§10) On Day 1, 1000 cells per well were seeded in 150 μL of complete growth media supplemented with 10% fetal bovine serum (FBS) and incubated at 37° C., in the presence of 5% CO2 in 96-well ultra-low attachment microplates (Corning) for 48 hours undisturbed to allow spheroids to form.
(§11) Following spheroid formation, cells were treated with compounds diluted in DMSO at 0.25% final DMSO concentration. Compounds were dosed in a 9-point concentration curve with three-fold dilution between concentrations. Cells were incubated in the presence of compound for 72 hours at 37° C., in the presence of 5% CO2.
(§12) Following this incubation period, the kit-provided CTG reagent was allowed to equilibrate for 30 minutes at room temperature, 150 μL of equilibrated CTG reagent was added to each well, and the plate was sealed before shaking at 250 rpm for 10 minutes at room temperature to lyse the cells, 150 μL of lysate per well was transferred to a 96-well plate and luminescence was read on a CLARIOstar plate reader.
(§13) Data was imported into the Prism software package (Graphpad) and EC50 values were calculated using the log (inhibitor) vs, response—variable slope (Four parameters) model.

The test system of test [6] is A549 cells (KRAS G12S). Put plainly: Cell-based pERK HTRF assay in A549 cells (Biological Example 5). As to the method:
as §1, §2, §3, §4, §5, §6, §7

For test [7], the system named is HT1080 cells (NRAS). Put plainly: 3D Cell viability assay in HT1080 cells (Biological Example 6). In kind it is cell-based. Particulars: HT1080 (NRAS) spheroids, 72 hours. As to the method:
as §8, §9, §10, §11, §12, §13

[8] abbreviates: Homo sapiens, MKN-1, MKN cells (MKN1, KRAS amplification).

T1 sequence (P01116 2-169 isoform P01116-2 G12C): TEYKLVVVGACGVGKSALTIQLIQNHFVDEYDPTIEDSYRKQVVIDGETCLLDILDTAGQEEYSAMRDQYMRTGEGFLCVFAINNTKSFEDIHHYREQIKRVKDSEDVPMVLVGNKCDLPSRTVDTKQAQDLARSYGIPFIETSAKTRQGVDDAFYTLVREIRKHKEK

For the compound `C[C@H]1Cn2nc(C(=O)N(C)C)cc2CN1c1nc(OC[C@@]23CCCN2C[C@H](F)C3)nc2c(F)c(-c3ccc(F)c4sc(N)c(C#N)c34)c(C(F)(F)F)cc12` (atropisomer, axis not shown) [Compound 610], the IC50 in test [1] is 100 to 1000 nM; in test [2], no more than 100 nM; in test [3], no more than 100 nM; in test [4] (setting [8]) it was no more than 100 nM; in test [5] it was no more than 100 nM.

For the compound `C/C=C/C(=O)N1CC[C@H](N(CC)c2nc(OC[C@@]34CCCN3C[C@H](F)C4)nc3c(F)c(-c4ccc(F)c5sc(N)c(C#N)c45)c(C(F)(F)F)cc23)C1` (atropisomer, axis not shown) [Compound 674], the 50% inhibitory concentration (IC50) in test [1], in test [2], in test [3], in test [4] (setting [8]) and in test [5] was no more than 100 nM in each case.

Turning to `CCN(c1nc(OC[C@@]23CCCN2C[C@H](F)C3)nc2c(F)c(-c3ccc(F)c4sc(N)c(C#N)c34)c(C(F)(F)F)cc12)[C@H]1C[C@H](COC)N(C(=O)C2CC2)C1` (atropisomer, axis not shown) [Compound 696], the IC50 was 100 to 1000 nM in test [1]; no more than 100 nM in test [2]; no more than 100 nM in test [3]; no more than 100 nM in test [4] (setting [8]); no more than 100 nM in test [5].

Turning to `CCN(c1nc(OC[C@@]23CCCN2C[C@H](F)C3)nc2c(F)c(-c3ccc(F)c4sc(N)c(C#N)c34)c(C(F)(F)F)cc12)[C@H]1C[C@H](C)N(C(=O)OC)C1` (atropisomer, axis not shown) [Compound 704], the IC50 is 100 to 1000 nM in test [1]; no more than 100 nM in test [2]; no more than 100 nM in test [3]; no more than 100 nM in test [4] (setting [8]); no more than 100 nM in test [5].

As for `CCN(c1nc(OC[C@@]23CCCN2C[C@H](F)C3)nc2c(F)c(-c3ccc(F)c4sc(N)c(C#N)c34)c(C(F)(F)F)cc12)[C@H]1C[C@H](C)N(C(=O)N2CC(OC)C2)C1` (atropisomer, axis not shown) [Compound 764], the IC50 in test [1] was 100 to 1000 nM; in test [2] it was no more than 100 nM; in test [3], no more than 100 nM; in test [4] (setting [8]), no more than 100 nM; in test [5], no more than 100 nM.

Take `CCN(c1nc(OC[C@@]23CCCN2C[C@H](F)C3)nc2c(F)c(-c3ccc(F)c4sc(N)c(C#N)c34)c(C(F)(F)F)cc12)[C@H]1CC(=O)N2CCC[C@@H]12` (atropisomer, axis not shown; (aS)) [Compound 697, 2-amino-4-((S)-4-(ethyl((1S,7aS)-3-oxohexahydro-1H-pyrrolizin-1-yl)amino)-8-fluoro-2-(((2R,7aS)-2-fluorotetrahydro-1H-pyrrolizin-7a(5H)-yl)methoxy)-6-(trifluoromethyl)quinazolin-7-yl)-7-fluorobenzo[b]thiophene-3-carbonitrile]: the half-inhibitory concentration (IC50) in test [1], in test [2], in test [3], in test [4] (setting [8]) and in test [5] was no more than 100 nM in each case.

Turning to `CC(=O)N1CC[C@@H](N(C)c2nc(OC[C@@]34CCCN3C[C@H](F)C4)nc3c(F)c(-c4ccc(F)c5sc(N)c(C#N)c45)c(C(F)(F)F)cc23)[C@H]1C` (single isomer, unassigned) [Compound 193], the IC50 in test [6] (Homo sapiens) is no more than 100 nM; in test [4] (setting [8]), no more than 100 nM; in test [7] (Homo sapiens, HT-1080) it was greater than 1000 nM.

Consider `N#Cc1c(N)sc2c(F)ccc(-c3c(C(F)(F)F)cc4c(N5CCOCC5)nc(OC[C@@]56CCCN5C[C@H](F)C6)nc4c3F)c12` (single isomer, unassigned) [Compound 198], for which the IC50 in test [6] (Homo sapiens) was 100 to 1000 nM; in test [4] (setting [8]), no more than 100 nM; in test [7] (Homo sapiens, HT-1080), greater than 1000 nM.

Turning to `CN(c1nc(OC[C@@]23CCCN2C[C@H](F)C3)nc2c(F)c(-c3ccc(F)c4sc(N)c(C#N)c34)c(C(F)(F)F)cc12)[C@H]1C[C@@H](O)C1` [Compound 19, 2-amino-7-fluoro-4-((S)-8-fluoro-2-(((2R,7aS)-2-fluorotetrahydro-1H-pyrrolizin-7a(5H)-yl)methoxy)-4-(((1s,3R)-3-hydroxycyclobutyl)(methyl)amino)-6-(trifluoromethyl)quinazolin-7-yl)benzo[b]thiophene-3-carbonitrile], the IC50 in test [3] was no more than 100 nM; in test [6] it was 100 to 1000 nM; in test [4] (MKN cells (MKN1, KRAS amplification)), no more than 100 nM; in test [5] it was no more than 100 nM; in test [7], greater than 1000 nM.

For the compound `N#Cc1c(N)sc2c(F)ccc(-c3c(C(F)(F)F)cc4c(N5CCCOCC5)nc(OC[C@@]56CCCN5C[C@H](F)C6)nc4c3F)c12` [Compound 232], the IC50 in test [6] (Homo sapiens) was 100 to 1000 nM; in test [7] (Homo sapiens, HT-1080), greater than 1000 nM.

As to `N#Cc1c(N)sc2c(F)ccc(-c3c(C(F)(F)F)cc4c(N5CCC[C@@H](O)C5)nc(OC[C@@]56CCCN5C[C@H](F)C6)nc4c3F)c12` [Compound 234], the IC50 in test [6] (Homo sapiens) is no more than 100 nM; in test [4] (setting [8]), no more than 100 nM; in test [7] (Homo sapiens, HT-1080), greater than 1000 nM.

Consider `C[C@@H]1[C@H](N(C)c2nc(OC[C@@]34CCCN3C[C@H](F)C4)nc3c(F)c(-c4ccc(F)c5sc(N)c(C#N)c45)c(C(F)(F)F)cc23)CCN1C(=O)C1CC1` [Compound 258], for which the IC50 is no more than 100 nM in test [6] (Homo sapiens); no more than 100 nM in test [4] (setting [8]); greater than 1000 nM in test [7] (Homo sapiens, HT-1080).

`CCC(=O)N1CC[C@@H](N(C)c2nc(OC[C@@]34CCCN3C[C@H](F)C4)nc3c(F)c(-c4ccc(F)c5sc(N)c(C#N)c45)c(C(F)(F)F)cc23)[C@H]1C` [Compound 260]: the IC50 was no more than 100 nM in test [3]; no more than 100 nM in test [6] (Homo sapiens); no more than 100 nM in test [4] (setting [8]); no more than 100 nM in test [5]; greater than 1000 nM in test [7] (Homo sapiens, HT-1080).

For the compound `CCN(c1nc(OC[C@@]23CCCN2C[C@H](F)C3)nc2c(F)c(-c3ccc(F)c4sc(N)c(C#N)c34)c(Cl)cc12)[C@@H]1CCN(C(C)=O)[C@@H]1C` [Compound 323], the IC50 in test [6] (Homo sapiens) was no more than 100 nM; in test [4] (setting [8]) it was no more than 100 nM; in test [7] (Homo sapiens, HT-1080), greater than 1000 nM.

Consider `CCN(c1nc(OC[C@@]23CCCN2C[C@H](F)C3)nc2c(F)c(-c3ccc(F)c4sc(N)c(C#N)c34)c(Cl)cc12)[C@@H]1CCN(C(=O)C2CC2)[C@@H]1C` [Compound 337], for which the IC50 was 100 to 1000 nM in test [6] (Homo sapiens); no more than 100 nM in test [4] (setting [8]); greater than 1000 nM in test [7] (Homo sapiens, HT-1080).

Regarding `CN(Cc1cccnc1N)c1nc(OC[C@@]23CCCN2C[C@H](F)C3)nc2c(F)c(-c3ccc(F)c4sc(N)c(C#N)c34)c(C(F)(F)F)cc12` [Compound 390], the IC50 is no more than 100 nM in test [2]; no more than 100 nM in test [6] (Homo sapiens); no more than 100 nM in test [4] (setting [8]); greater than 1000 nM in test [7] (Homo sapiens, HT-1080).

In the case of `CC(=O)N1CC[C@@H](N(C)c2nc(OC[C@@]34CCCN3C[C@H](F)C4)nc3c(F)c(-c4ccc(F)c5sc(N)c(C#N)c45)c(Cl)cc23)[C@H]1C` [Compound 398], the IC50 in test [6] (Homo sapiens) was no more than 100 nM; in test [4] (setting [8]), no more than 100 nM; in test [7] (Homo sapiens, HT-1080) it was greater than 1000 nM.
